Each structure is given as a SMILES string.

For orientation: DC50 means the concentration at which degradation of the target reaches its halfway point. A high value points to a less potent degrader. The Dmax is the greatest extent of degradation seen.

Experiment [1] concerns the target T1, AR (AR-full length) in LNCaP cells (Homo sapiens, UniProt P10275, T878A).
T1 construct: the prostate cancer cell line LNCaP (expressing AR-full length); endogenous in cells; host or cells: LNCaP
Description: LNCaP Androgen Receptor Imaging Assay (immunofluorescence of endogenous nuclear AR). The conditions noted are these: 24 h incubation; for DC50: concentration giving 50% of maximum degradation of AR per curve fit, single experiment or average of two or more; for Dmax: LNCaP, maximum degradation observed, normalized as % of positive control (prior art AR PROTAC at 3 μM). In kind it is cell-based. In a few lines: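 LNCaP cells (12,000/well) received a 12-point compound dose series (0.3% DMSO) for 24 h at 37° C., then were PFA-fixed and stained for AR (AR441) and nuclei (DRAQ5). Nuclear AR was quantified by imaging, normalized to a 3 μM AR PROTAC control; DC50 and Dmax came from Hill/bell curve fits.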

For experiment [2], the target named is T2, AR (L702H) in LNCaP cells (Homo sapiens, UniProt P10275, L702H/T878A).
T2 construct: engineered to introduce the mutation L702H into the AR gene using CRISPR/Cas9; endogenous in cells; host or cells: LNCaP cells edited by CRISPR/Cas9 at the AR gene
T2 sequence (P10275 whole entry L702H/T878A): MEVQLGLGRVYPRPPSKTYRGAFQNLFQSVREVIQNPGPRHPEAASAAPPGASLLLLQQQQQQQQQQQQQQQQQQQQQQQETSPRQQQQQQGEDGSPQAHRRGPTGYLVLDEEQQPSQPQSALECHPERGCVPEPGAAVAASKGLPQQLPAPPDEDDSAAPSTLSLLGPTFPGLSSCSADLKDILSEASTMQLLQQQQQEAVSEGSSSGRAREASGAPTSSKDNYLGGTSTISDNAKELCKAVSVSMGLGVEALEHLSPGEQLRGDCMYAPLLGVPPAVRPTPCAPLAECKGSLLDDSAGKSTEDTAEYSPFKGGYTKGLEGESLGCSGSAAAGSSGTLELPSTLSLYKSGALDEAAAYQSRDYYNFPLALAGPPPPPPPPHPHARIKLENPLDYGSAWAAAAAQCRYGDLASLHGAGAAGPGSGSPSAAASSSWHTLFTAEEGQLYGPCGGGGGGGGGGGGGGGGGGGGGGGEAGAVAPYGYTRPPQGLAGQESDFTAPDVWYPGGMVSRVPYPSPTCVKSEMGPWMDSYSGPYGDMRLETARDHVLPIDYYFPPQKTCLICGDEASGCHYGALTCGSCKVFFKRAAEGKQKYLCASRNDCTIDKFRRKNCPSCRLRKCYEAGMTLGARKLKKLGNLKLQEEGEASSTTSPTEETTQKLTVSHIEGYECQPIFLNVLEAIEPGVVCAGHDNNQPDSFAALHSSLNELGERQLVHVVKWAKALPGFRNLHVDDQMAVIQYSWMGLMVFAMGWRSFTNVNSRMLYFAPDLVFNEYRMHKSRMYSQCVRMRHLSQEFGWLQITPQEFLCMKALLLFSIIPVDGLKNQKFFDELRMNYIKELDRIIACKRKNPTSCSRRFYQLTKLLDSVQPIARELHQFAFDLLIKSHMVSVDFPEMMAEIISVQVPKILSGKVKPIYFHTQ
T2 sequence (Q96SW2 whole entry partner): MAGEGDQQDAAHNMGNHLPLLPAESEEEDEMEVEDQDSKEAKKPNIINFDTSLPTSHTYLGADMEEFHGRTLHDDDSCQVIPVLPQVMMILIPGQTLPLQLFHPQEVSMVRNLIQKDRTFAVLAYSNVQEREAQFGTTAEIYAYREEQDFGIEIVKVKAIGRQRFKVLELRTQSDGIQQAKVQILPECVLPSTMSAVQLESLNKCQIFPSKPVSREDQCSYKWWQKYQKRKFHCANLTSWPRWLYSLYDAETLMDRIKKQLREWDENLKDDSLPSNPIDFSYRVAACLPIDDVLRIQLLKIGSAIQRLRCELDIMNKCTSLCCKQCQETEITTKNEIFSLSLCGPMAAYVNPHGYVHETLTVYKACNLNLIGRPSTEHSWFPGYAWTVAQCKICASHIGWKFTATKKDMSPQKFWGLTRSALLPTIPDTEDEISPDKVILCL
Description: LNCaP Androgen Receptor L702H Imaging Assay (LNCaP cells engineered by CRISPR/Cas9). The conditions noted are these: LNCaP cells with AR L702H mutation, 24 h incubation; for DC50: concentration giving 50% of maximum degradation of AR (L702H) per curve fit; for Dmax: LNCaP, maximum degradation observed, normalized as % of positive control. In kind it is cell-based. The method, boiled down:
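CRISPR-engineered LNCaP cells carrying AR L702H were treated 24 h at 37 °C with a 12-point compound dose response (0.3% DMSO), then fixed and immunostained for AR with DRAQ5 nuclear counterstain. Nuclear AR was quantified by imaging, normalized to positive control; DC50 and Dmax came from Hill or bell-shaped fits.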

T1 sequence (P10275 whole entry T878A): as the sequence (P10275 whole entry L702H/T878A) above, with H702L counted along it
T1 sequence (Q96SW2 whole entry partner): as the sequence (Q96SW2 whole entry partner) above

Regarding `N#Cc1n[nH]c2c(N3CCC[C@@H](c4ccc(N5CCC(CN6CCC(n7ccc8c(N9CCC(=O)NC9=O)cccc87)CC6)CC5)cc4)C3)ccc(F)c12` [Example 134, 7-[(3S)-3-{4-[4-({4-[4-(2,4-Dioxo-1,3-diazinan-1-yl)-1H-indol-1-yl]piperidin-1-yl}methyl)piperidin-1-yl]phenyl}piperidin-1-yl]-4-fluoro-1H-indazole-3-carbonitrile], in experiment [1], half-maximal degradation (DC50) was put at 5 nM and the Dmax stood at 106%. For the same molecule, in experiment [2], half-maximal degradation (DC50) was put at 22 nM and the Dmax turned out to be 94%.

In the case of `N#Cc1c[nH]c2c(N3CCC(c4ccc(N5CC6(CCC(CN7CCC(n8ccc9c(N%10CCC(=O)NC%10=O)cccc98)CC7)CC6)C5)cc4)CC3)ccc(F)c12` [Example 135, 7-(4-{4-[7-({4-[4-(2,4-Dioxo-1,3-diazinan-1-yl)-1H-indol-1-yl]piperidin-1-yl}methyl)-2-azaspiro[3.5]nonan-2-yl]phenyl}piperidin-1-yl)-4-fluoro-1H-indole-3-carbonitrile], in experiment [1], the DC50 turned out to be 24 nM and the Dmax was found to be 105%. Moreover, in experiment [2], the DC50 was 81 nM and the Dmax is 91%.

Regarding `Cn1c(C2CCN(CC3CCN(c4ccc([C@H]5CCCN(c6ccc(Cl)c7c(C#N)c[nH]c67)C5)cc4)CC3)CC2)cc2cc(F)c(N3CCC(=O)NC3=O)cc21` [Example 136, 4-Chloro-7-[(3R)-3-{4-[4-({4-[6-(2,4-dioxo-1,3-diazinan-1-yl)-5-fluoro-1-methyl-1H-indol-2-yl]piperidin-1-yl}methyl)piperidin-1-yl]phenyl}piperidin-1-yl]-1H-indole-3-carbonitrile], the DC50 in experiment [1] stood at 10 nM; in experiment [2], 14 nM. For the same molecule, the Dmax amounted to 104% in experiment [1] and 108% in experiment [2].

Take `Cn1c(C2CCN(CC3CCN(c4ccc([C@@H]5CCCN(c6ccc(Cl)c7c(C#N)c[nH]c67)C5)cc4)CC3)CC2)cc2cc(F)c(N3CCC(=O)NC3=O)cc21` [Example 137, 4-Chloro-7-[(3S)-3-{4-[4-({4-[6-(2,4-dioxo-1,3-diazinan-1-yl)-5-fluoro-1-methyl-1H-indol-2-yl]piperidin-1-yl}methyl)piperidin-1-yl]phenyl}piperidin-1-yl]-1H-indole-3-carbonitrile]: in experiment [1], the DC50 was 10 nM and the Dmax was 105%. In experiment [2], the DC50 is 20 nM and the Dmax was 109%.

In the case of `Cn1c(C2CCN(CC3CCN(c4ccc([C@H]5CCCN(c6ccc(Cl)c7c(C#N)n[nH]c67)C5)cc4)CC3)CC2)cc2cc(F)c(N3CCC(=O)NC3=O)cc21` [Example 138, 4-Chloro-7-[(3R)-3-{4-[4-({4-[6-(2,4-dioxo-1,3-diazinan-1-yl)-5-fluoro-1-methyl-1H-indol-2-yl]piperidin-1-yl}methyl)piperidin-1-yl]phenyl}piperidin-1-yl]-1H-indazole-3-carbonitrile], in experiment [1], the DC50 stood at 8 nM and the Dmax is 104%. Also, in experiment [2], half-maximal degradation (DC50) was put at 6 nM and the Dmax was found to be 108%.

Consider `Cn1c(C2CCN(CC3CCN(c4ccc([C@@H]5CCCN(c6ccc(Cl)c7c(C#N)n[nH]c67)C5)cc4)CC3)CC2)cc2cc(F)c(N3CCC(=O)NC3=O)cc21` [Example 139, 4-Chloro-7-[(3S)-3-{4-[4-({4-[6-(2,4-dioxo-1,3-diazinan-1-yl)-5-fluoro-1-methyl-1H-indol-2-yl]piperidin-1-yl}methyl)piperidin-1-yl]phenyl}piperidin-1-yl]-1H-indazole-3-carbonitrile], for which, in experiment [1], the DC50 was 10 nM and the Dmax turned out to be 105%. Also, in experiment [2], the DC50 was determined as 16 nM and the Dmax is 107%.

As for `Cn1c(C2CCN(CC3CCN(c4ccc(C5CCN(c6ccc(F)c7c(C#N)n[nH]c67)CC5)cc4)CC3)CC2)cc2ccc(N3CCC(=O)NC3=O)cc21` [Example 140, 7-(4-{4-[4-({4-[6-(2,4-Dioxo-1,3-diazinan-1-yl)-1-methyl-1H-indol-2-yl]piperidin-1-yl}methyl)piperidin-1-yl]phenyl}piperidin-1-yl)-4-fluoro-1H-indazole-3-carbonitrile], in experiment [1], the DC50 is 7 nM and the Dmax is 88%. In experiment [2], it took 14 nM to reach half-maximal degradation (DC50) and the Dmax turned out to be 56%.

`Cc1cc2c(N3CCC(=O)NC3=O)cccc2n1C1CCN(CC2CCN(c3ccc(C4CCN(c5ccc(F)c6c(C#N)c[nH]c56)CC4)cc3)CC2)CC1` [Example 141, 7-(4-{4-[4-({4-[4-(2,4-Dioxo-1,3-diazinan-1-yl)-2-methyl-1H-indol-1-yl]piperidin-1-yl}methyl)piperidin-1-yl]phenyl}piperidin-1-yl)-4-fluoro-1H-indole-3-carbonitrile]: in experiment [1], the half-maximal degradation concentration (DC50) is 21 nM and the Dmax stood at 95%. Also, in experiment [2], the 50% degradation concentration (DC50) is 23 nM and the Dmax was 105%.

In the case of `N#Cc1c[nH]c2c(N3CCC(c4ccc(N5CC6(CCC(CN7CCC(n8ccc9c(N%10CCC(=O)NC%10=O)cccc98)CC7)CC6)C5)cc4)CC3)ccc(Cl)c12` [Example 142, 4-Chloro-7-(4-{4-[7-({4-[4-(2,4-dioxo-1,3-diazinan-1-yl)-1H-indol-1-yl]piperidin-1-yl}methyl)-2-azaspiro[3.5]nonan-2-yl]phenyl}piperidin-1-yl)-1H-indole-3-carbonitrile], in experiment [1], the half-maximal degradation concentration (DC50) was 25 nM and the Dmax is 106%. Further, in experiment [2], it took 45 nM to reach half-maximal degradation (DC50) and the Dmax was determined as 109%.

In the case of `COc1nc(N2CCN(CC3CCN(c4ccc(C5CCN(c6ccc(Cl)c7c(C#N)n[nH]c67)CC5)cc4)CC3)CC2)cc2c1C(=O)N(C1CCC(=O)NC1=O)C2` (stereo not drawn) [Example 143, 4-Chloro-7-(4-{4-[4-({4-[2-(2,6-dioxopiperidin-3-yl)-4-methoxy-3-oxo-2,3-dihydro-1H-pyrrolo[3,4-c]pyridin-6-yl]piperazin-1-yl}methyl)piperidin-1-yl]phenyl}piperidin-1-yl)-1H-indazole-3-carbonitrile], in experiment [1], the 50% degradation concentration (DC50) was determined as 37 nM and the Dmax was found to be 101%. In experiment [2], the half-maximal degradation concentration (DC50) was determined as 67 nM and the Dmax is 104%.

Take `COc1nc(N2CCN(CC3CCN(c4ccc(C5CCN(c6ccc(F)c7c(C#N)n[nH]c67)CC5)cc4)CC3)CC2)cc2c1C(=O)N(C1CCC(=O)NC1=O)C2` (stereo not drawn) [Example 144, 7-(4-{4-[4-({4-[2-(2,6-Dioxopiperidin-3-yl)-4-methoxy-3-oxo-2,3-dihydro-1H-pyrrolo[3,4-c]pyridin-6-yl]piperazin-1-yl}methyl)piperidin-1-yl]phenyl}piperidin-1-yl)-4-fluoro-1H-indazole-3-carbonitrile]: in experiment [1], it took 21 nM to reach half-maximal degradation (DC50) and the Dmax came out at 97%. Also, in experiment [2], the DC50 was determined as 95 nM and the Dmax turned out to be 75%.

With `N#Cc1n[nH]c2c(N3CCC(c4ccc(N5CCC(CN6CCN(c7ccc8c(c7)CN(C7CCC(=O)NC7=O)C8=O)CC6)CC5)cc4)CC3)ccc(F)c12` (stereo not drawn) [Example 145, 7-(4-{4-[4-({4-[2-(2,6-Dioxopiperidin-3-yl)-1-oxo-2,3-dihydro-1H-isoindol-5-yl]piperazin-1-yl}methyl)piperidin-1-yl]phenyl}piperidin-1-yl)-4-fluoro-1H-indazole-3-carbonitrile], in experiment [1], it took 9 nM to reach half-maximal degradation (DC50) and the Dmax was 98%. Also, in experiment [2], half-maximal degradation (DC50) was put at 40 nM and the Dmax is 70%.

`N#Cc1n[nH]c2c(N3CCC(c4ccc(N5CCC(CN6CCC(n7ccc8c(N9CCC(=O)NC9=O)cccc87)CC6)CC5)cc4)CC3)ccc(Cl)c12` [Example 146, 4-Chloro-7-(4-{4-[4-({4-[4-(2,4-dioxo-1,3-diazinan-1-yl)-1H-indol-1-yl]piperidin-1-yl}methyl)piperidin-1-yl]phenyl}piperidin-1-yl)-1H-indazole-3-carbonitrile]: in experiment [1], the half-maximal degradation concentration (DC50) came out at 27 nM and the Dmax amounted to 100%. In experiment [2], the DC50 came out at 38 nM and the Dmax was 102%.

Consider `N#Cc1n[nH]c2c(N3CCC(c4ccc(N5CCC(CN6CCC(n7ccc8c(N9CCC(=O)NC9=O)cccc87)CC6)CC5)cc4)CC3)ccc(F)c12` [Example 147, 7-(4-{4-[4-({4-[4-(2,4-Dioxo-1,3-diazinan-1-yl)-1H-indol-1-yl]piperidin-1-yl}methyl)piperidin-1-yl]phenyl}piperidin-1-yl)-4-fluoro-1H-indazole-3-carbonitrile], for which the DC50 in experiment [1] was found to be 6 nM; in experiment [2] it was 38 nM. For the same molecule, the Dmax in experiment [1] was 102%; in experiment [2], 96%.

Consider `COc1cc(N2CCN(CCCCOc3ccc(C4CCN(c5ccc(C)c6c(C#N)n[nH]c56)CC4)cc3)CC2)cc2c1C(=O)N(C1CCC(=O)NC1=O)C2` (stereo not drawn) [Example 148, 7-{4-[4-(4-{4-[2-(2,6-Dioxopiperidin-3-yl)-7-methoxy-1-oxo-2,3-dihydro-1H-isoindol-5-yl]piperazin-1-yl}butoxy)phenyl]piperidin-1-yl}-4-methyl-1H-indazole-3-carbonitrile], for which, in experiment [1], the DC50 amounted to 20 nM and the Dmax was 99%. In addition, in experiment [2], the DC50 turned out to be 52 nM and the Dmax was 89%.

The values above are taken from patent US20260274832A1, “COMPOUNDS AND THEIR USE IN TREATING CANCER” (ASTRAZENECA AB, priority 2023, published 2026).
